Source: ChEMBL document CHEMBL1201862, “PubChem BioAssay data set” (2004)
Calls of active or inactive are those of the source.

Tests used:
[1] = molecular target: 5-hydroxytryptamine receptor 1A (Homo sapiens, UniProt P08908); assay type: functional
Cytochrome P450 3A4 = Cytochrome P450 3A4 (Homo sapiens, UniProt P08684); details: Potency;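 also: confirmatory qHTS run detecting inhibitors and substrates of CYP3A4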
Vero [2] = experiment: cells; assay type: functional, cell-based; details: Chlorocebus sabaeus
cells [3] = experiment: cells
[4] = viability of uninfected HEp-2 cells – cell-based, HTS, cytotoxicity control for RSV inhibitor project, dose response (AID 2410); assay type: functional; details: human respiratory syncytial virus
Estrogen receptor beta [5] = molecular target: T1, Estrogen receptor beta (Homo sapiens, UniProt Q92731); experiment: blockers of SRC-3 recruitment to ERβ – biochemical, ELISA, streptavidin-HRP readout, orthogonal assay, confirmation (AID 1060)
T1 sequence (Q92731 whole entry): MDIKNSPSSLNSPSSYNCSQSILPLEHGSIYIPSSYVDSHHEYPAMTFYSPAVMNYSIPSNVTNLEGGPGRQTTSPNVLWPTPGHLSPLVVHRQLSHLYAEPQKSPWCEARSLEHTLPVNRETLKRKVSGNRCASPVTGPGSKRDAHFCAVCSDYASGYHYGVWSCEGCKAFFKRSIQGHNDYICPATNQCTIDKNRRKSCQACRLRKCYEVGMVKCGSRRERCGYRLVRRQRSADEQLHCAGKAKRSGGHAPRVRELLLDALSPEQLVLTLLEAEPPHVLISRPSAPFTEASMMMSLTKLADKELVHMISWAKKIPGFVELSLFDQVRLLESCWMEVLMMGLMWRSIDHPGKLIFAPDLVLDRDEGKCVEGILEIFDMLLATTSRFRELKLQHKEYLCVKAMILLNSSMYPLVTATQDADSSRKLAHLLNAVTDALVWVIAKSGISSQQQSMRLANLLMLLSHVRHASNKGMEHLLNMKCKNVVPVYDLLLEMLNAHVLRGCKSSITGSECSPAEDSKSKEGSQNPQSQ

Estrogen receptor beta [6] = molecular target: T1, Estrogen receptor beta
[7] = molecular target: T2, Intestinal-type alkaline phosphatase (Homo sapiens, UniProt P09923); experiment: human intestinal alkaline phosphatase activators, dose response, biochemical, luminescence, uHTS hits (AID 463120); assay type: functional
T2 sequence (P09923 whole entry): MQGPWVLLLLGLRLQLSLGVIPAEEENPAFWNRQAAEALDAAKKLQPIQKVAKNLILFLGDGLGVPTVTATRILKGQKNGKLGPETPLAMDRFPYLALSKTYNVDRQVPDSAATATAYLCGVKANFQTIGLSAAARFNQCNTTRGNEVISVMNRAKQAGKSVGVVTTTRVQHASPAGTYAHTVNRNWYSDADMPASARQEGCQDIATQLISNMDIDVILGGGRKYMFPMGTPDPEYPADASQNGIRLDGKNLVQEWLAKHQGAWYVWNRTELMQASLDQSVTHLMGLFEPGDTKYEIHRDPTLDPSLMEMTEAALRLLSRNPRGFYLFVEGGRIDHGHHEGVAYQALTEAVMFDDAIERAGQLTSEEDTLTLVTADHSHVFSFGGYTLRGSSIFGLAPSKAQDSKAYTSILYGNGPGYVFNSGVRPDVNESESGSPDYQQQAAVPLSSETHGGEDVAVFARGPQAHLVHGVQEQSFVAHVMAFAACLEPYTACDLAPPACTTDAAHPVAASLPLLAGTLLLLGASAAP

[8] = molecular target: T2, Intestinal-type alkaline phosphatase; experiment: Dose Response confirmation of uHTS hits from a small molecule inhibitors of human intestinal alkaline phosphatase via a luminescent assay. [Related pubchem assays (depositor defined):AID2544, AID2574]; assay type: functional
Vero [9] = experiment: mammalian cell viability reduction – secondary assay, cytotoxicity control for West Nile virus antiviral project, dose response (AID 1650); assay type: functional; details: Chlorocebus sabaeus
[10] = cAMP pathway inhibition in counterscreen cell line – TR-FRET cAMP detection, counter-screen for MC4R biased antagonist project, dose response (AID 602305); assay type: functional, cell-based;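 also: U2OS cells stimulated with forskolin near its EC80 as the cAMP inducer; potency is for inhibition of forskolin-stimulated cAMP signaling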
Melanocortin receptor 4 = Melanocortin receptor 4 (Homo sapiens, UniProt P32245); experiment: inhibitors of MC4R cAMP signaling – cell-based, TR-FRET, biased antagonists, dose response (AID 602298); assay type: functional;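 also: antagonist potency against agonist-stimulated cAMP production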
Melanocortin receptor 4, sequence (P32245 whole entry): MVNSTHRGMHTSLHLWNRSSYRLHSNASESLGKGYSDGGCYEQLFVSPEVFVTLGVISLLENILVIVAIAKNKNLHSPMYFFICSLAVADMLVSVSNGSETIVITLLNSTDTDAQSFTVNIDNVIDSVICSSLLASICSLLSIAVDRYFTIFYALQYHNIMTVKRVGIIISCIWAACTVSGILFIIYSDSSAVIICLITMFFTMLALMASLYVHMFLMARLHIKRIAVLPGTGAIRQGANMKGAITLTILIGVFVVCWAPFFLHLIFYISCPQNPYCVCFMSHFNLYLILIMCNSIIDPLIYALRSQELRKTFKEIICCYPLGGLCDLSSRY

[11] = HPDE-C7 pancreatic duct cell viability loss – fluorescence, HTS (AID 430); assay type: functional, cell-based; details: Homo sapiens
[12] = viability loss of HPDE-C7K cells – cell-based, fluorescence, HTS, primary screen (AID 431); assay type: functional; details: Homo sapiens
[13] = potency of ADAM10 substrate cleavage blockers – biochemical, QFRET, dose response (AID 743254);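 also: ADAM10 enzyme with the DM2 quenched FRET peptide as substrate; EDANS fluorescence gain as the protease cuts the substrate; inhibitor potency against ADAM10 proteolytic activity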
[14] = NIH3T3 cell viability loss – ATP luminescence, mouse fibroblasts, counter-screen, dose response (AID 2010); assay type: functional, cell-based;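 also: cells exposed to compound for about 90 hours before reading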
cells [15] = experiment: cells; remark: listed apart in the source
[16] = Trypanosoma cruzi growth suppression in host cells – NIH3T3 host cells, beta-gal luminescence, confirmation (AID 2044); assay type: functional, cell-based;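 also: intracellular parasites grown in NIH/3T3 mouse fibroblasts as host cells; luminescent beta-galactosidase reporter signal from transgenic T. cruzi replicating inside host cells; inhibitors lower the luminescence signal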
HEK293 [17] = experiment: cells; assay type: functional, cell-based; details: Homo sapiens
HEK293 [18] = experiment: cells; assay type: functional, cell-based; details: Homo sapiens; remark: listed apart in the source
[19] = molecular target: Nucleotide-binding oligomerization domain-containing protein 2 (Homo sapiens, UniProt Q9HC29); experiment: inhibition of NOD2-driven NF-kB reporter – cell-based, luminescence, uHTS, HEK293 (AID 1566); assay type: functional
Nucleotide-binding oligomerization domain-containing protein 2, sequence (Q9HC29 whole entry, the tested form may be a part): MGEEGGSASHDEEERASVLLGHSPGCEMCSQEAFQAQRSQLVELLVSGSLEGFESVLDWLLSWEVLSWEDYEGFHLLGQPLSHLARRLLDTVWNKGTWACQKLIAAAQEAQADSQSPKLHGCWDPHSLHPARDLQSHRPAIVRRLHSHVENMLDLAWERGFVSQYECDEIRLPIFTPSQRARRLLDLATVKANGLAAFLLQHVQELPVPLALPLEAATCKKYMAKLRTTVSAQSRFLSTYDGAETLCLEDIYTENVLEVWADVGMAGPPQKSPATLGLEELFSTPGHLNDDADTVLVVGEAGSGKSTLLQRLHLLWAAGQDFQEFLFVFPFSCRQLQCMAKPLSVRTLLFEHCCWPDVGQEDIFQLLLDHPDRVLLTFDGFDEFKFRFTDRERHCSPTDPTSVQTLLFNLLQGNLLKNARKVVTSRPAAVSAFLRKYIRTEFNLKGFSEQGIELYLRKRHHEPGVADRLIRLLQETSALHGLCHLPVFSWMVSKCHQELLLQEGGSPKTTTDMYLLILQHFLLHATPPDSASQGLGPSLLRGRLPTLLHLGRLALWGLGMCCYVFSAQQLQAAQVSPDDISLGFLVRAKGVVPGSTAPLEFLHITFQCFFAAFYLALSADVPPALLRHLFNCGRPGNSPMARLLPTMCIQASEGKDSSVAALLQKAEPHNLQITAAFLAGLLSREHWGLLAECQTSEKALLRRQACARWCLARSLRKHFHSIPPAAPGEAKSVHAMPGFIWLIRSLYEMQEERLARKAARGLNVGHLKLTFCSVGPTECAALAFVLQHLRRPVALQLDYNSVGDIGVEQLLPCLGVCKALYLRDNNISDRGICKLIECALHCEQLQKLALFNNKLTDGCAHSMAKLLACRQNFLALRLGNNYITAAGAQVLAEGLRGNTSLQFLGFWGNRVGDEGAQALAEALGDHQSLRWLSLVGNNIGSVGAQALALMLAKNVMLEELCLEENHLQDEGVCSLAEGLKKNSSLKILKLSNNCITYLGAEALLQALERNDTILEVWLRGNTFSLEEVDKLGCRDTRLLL

HEK293 [20] = experiment: cells; assay type: functional, cell-based; details: Homo sapiens; remark: listed apart in the source
HEK293 [21] = experiment: NOD2 signaling inhibitors in MDP-stimulated cells, cell-based, uHTS, luminescence (AID 2001); assay type: functional; details: Homo sapiens
HEK293 [22] = experiment: inhibition of NOD1-driven NF-kB reporter – cell-based, luminescence, uHTS, primary screen (AID 1578); assay type: functional; details: Homo sapiens
Cytochrome P450 2C9 = Cytochrome P450 2C9 (Homo sapiens, UniProt P11712); details: Potency
Cytochrome P450 2C9, sequence (P11712 whole entry): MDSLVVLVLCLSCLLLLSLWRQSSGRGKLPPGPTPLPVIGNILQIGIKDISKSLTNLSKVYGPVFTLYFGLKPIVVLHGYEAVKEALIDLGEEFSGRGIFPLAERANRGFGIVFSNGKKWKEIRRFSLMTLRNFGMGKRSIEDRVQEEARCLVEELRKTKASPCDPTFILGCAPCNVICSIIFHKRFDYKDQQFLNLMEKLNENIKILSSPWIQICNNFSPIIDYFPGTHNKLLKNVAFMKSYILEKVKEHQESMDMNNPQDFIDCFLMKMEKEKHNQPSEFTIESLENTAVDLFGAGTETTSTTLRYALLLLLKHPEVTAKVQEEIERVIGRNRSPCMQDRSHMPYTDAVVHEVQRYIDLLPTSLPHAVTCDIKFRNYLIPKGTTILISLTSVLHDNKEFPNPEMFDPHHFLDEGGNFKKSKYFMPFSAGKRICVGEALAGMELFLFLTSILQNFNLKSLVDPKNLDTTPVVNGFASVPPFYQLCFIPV

[23] = molecular target: Glucose-6-phosphate 1-dehydrogenase (Homo sapiens, UniProt P11413); experiment: inhibition of Homo sapiens G6PD, dose series – biochemical, fluorescence, selectivity assay for P. falciparum G6PD inhibitor project, dose response (AID 504792); assay type: functional
Glucose-6-phosphate 1-dehydrogenase, sequence (P11413 whole entry): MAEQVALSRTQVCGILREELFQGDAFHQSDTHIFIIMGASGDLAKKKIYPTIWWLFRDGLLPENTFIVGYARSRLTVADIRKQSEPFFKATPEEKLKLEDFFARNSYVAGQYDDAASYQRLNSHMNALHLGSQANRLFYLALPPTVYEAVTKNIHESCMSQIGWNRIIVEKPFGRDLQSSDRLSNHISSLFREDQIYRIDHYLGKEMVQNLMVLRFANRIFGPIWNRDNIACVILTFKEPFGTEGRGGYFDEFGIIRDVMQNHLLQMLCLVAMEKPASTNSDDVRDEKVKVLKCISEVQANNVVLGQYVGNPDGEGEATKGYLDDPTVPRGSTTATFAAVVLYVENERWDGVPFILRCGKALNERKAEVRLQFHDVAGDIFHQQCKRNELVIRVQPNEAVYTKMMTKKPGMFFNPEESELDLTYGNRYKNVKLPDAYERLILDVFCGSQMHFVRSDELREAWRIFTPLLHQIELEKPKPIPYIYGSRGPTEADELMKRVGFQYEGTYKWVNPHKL

[24] = molecular target: DNA dC->dU-editing enzyme APOBEC-3G (Homo sapiens, UniProt Q9HC16); experiment: Dose Response confirmation of small molecule APOBEC3G DNA Deaminase Inhibitors via a fluorescence-based single-stranded DNA deaminase assay. [Related pubchem assays (depositor defined):AID493012, AID493028]; assay type: functional
DNA dC->dU-editing enzyme APOBEC-3G, sequence (Q9HC16 whole entry): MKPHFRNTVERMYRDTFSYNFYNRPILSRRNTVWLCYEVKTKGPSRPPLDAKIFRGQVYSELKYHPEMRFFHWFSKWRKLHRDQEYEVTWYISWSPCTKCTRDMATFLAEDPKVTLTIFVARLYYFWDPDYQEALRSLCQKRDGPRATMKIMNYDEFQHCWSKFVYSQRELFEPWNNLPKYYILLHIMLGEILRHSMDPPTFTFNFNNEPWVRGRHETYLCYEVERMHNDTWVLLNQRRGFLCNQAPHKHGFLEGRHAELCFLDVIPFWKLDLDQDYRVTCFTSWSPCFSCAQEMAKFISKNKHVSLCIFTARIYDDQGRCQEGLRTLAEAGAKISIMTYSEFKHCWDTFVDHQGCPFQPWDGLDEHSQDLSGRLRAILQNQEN

[25] = molecular target: DNA dC->dU-editing enzyme APOBEC-3A (Homo sapiens, UniProt P31941); experiment: A3A deaminase inhibition for selectivity – biochemical, dose response (AID 504722); assay type: functional
DNA dC->dU-editing enzyme APOBEC-3A, sequence (P31941 whole entry): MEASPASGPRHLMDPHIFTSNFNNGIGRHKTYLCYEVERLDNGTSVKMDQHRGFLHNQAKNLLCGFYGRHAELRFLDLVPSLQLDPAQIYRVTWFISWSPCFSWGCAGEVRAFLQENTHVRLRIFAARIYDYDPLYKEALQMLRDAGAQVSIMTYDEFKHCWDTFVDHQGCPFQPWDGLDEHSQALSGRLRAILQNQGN

[26] = HepG2 cell cytotoxicity, dose response, cytotoxicity control for non-replicating M. tuberculosis project (AID 489018); assay type: functional; details: Mycobacterium tuberculosis
[27] = THP-1 cell cytotoxicity, dose response, cytotoxicity control for non-replicating M. tuberculosis project (AID 489025); assay type: functional
cells [28] = assay type: functional

Cytochrome P450 3A4, sequence (P08684 whole entry): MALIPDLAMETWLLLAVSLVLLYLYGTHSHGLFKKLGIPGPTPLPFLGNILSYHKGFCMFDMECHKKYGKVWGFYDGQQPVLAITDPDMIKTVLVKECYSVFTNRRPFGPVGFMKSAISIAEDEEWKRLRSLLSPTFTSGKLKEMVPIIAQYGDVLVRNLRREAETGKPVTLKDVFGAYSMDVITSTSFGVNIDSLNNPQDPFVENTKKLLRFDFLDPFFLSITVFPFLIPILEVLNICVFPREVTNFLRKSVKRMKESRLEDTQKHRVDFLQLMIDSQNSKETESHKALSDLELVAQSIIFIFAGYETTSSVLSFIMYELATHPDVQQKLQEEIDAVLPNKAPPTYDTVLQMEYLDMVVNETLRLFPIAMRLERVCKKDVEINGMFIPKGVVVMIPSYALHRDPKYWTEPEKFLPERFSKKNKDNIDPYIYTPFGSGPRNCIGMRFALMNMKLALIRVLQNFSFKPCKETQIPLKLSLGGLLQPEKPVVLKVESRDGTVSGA
5-hydroxytryptamine receptor 1A, sequence (P08908 whole entry): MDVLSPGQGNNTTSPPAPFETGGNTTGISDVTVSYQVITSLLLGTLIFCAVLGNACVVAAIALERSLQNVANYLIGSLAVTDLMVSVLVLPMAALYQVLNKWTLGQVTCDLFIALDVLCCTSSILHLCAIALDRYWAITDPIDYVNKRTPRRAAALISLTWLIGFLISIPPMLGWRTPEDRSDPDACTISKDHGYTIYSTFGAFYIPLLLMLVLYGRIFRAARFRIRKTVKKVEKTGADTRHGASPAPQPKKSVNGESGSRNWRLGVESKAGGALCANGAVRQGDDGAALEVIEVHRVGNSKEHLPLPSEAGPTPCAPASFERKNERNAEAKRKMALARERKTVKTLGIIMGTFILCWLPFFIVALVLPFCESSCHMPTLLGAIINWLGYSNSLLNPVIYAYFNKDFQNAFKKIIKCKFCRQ

CCc1nn(C(C)C(=O)NCCN2CCN(c3cccc(C)c3C)CC2)c(=O)c2cc3occc3n12 (stereo not given)
EC50 [1]: > 50 µM (not active)

CNC(=O)[C@@H]1C[C@H]1[C@@H](NC(=O)CNC(=O)OCc1ccccc1)c1ccccc1
AC50 (Cytochrome P450 3A4): 15.8 µM (inconclusive)

O=C(CCNC(=O)c1ccc(Cl)cc1)NC1CCCc2ccccc21 (stereo not given)
IC50 (Vero [2]): 19.8 µM (active)
IC50 (cells [3]): 13.4 µM (active)
CC50 [4]: 40.2 µM (active)

c1coc(-c2nnc3sc(Cc4cccs4)nn23)c1
IC50 (Estrogen receptor beta [5]): 4.41 µM (not active)
IC50 (Estrogen receptor beta [6]): < 1.56 µM (active)

CCc1nnc(NC(=O)CSc2nnc(C)c(=O)n2N)s1
EC50 [7]: > 100 µM (inactive)
IC50 [8]: > 100 µM (inactive)

Cc1ccc(Nc2nc(N/N=C/c3c[nH]c4ccccc34)nc(N3CCOCC3)n2)cc1
IC50 (cells [3]): 20.5 µM (active)
CC50 (Vero [9]): 12.9 µM (active)
IC50 [10]: > 64.6 µM (inactive)
IC50 (Melanocortin receptor 4): > 64.6 µM (inactive)
CC50 [4]: 18.2 µM (active)

COc1ccc(-c2[nH]nc(C(F)(F)F)c2-c2cc3ccccc3o2)c(O)c1
EC50 [11]: 3.24 µM (active)
EC50 [12]: 3.68 µM (active)
IC50 [13]: > 69.5 µM (inactive)

COc1ccc(/C=C/CN2CCCC(CCC(=O)NCc3ccc(F)c(F)c3)C2)cc1 (stereo not given)
EC50 [14]: > 60 µM (not active)
EC50 (cells [15]): 0.037 µM (active)
EC50 [16]: < 0.1 µM (active)

COc1cc(/C=C/C(=O)c2ccc(C)cc2)ccc1OCC#N
IC50 (HEK293 [17]): > 20 µM (inactive)
IC50 (HEK293 [18]): 4.56 µM (active)
EC50 [19]: > 20 µM (inactive)
IC50 (HEK293 [20]): > 20 µM (inactive)
IC50 (HEK293 [21]): 5.83 µM (active)
EC50 (HEK293 [22]): 4.61 µM (active)

CC(C)[C@]1(NC(=O)[C@H]2C=C3c4cccc5[nH]cc(c45)C[C@H]3N(C)C2)O[C@@]2(O)[C@H]3CCCN3C(=O)[C@H](Cc3ccccc3)N2C1=O
AC50 (Cytochrome P450 2C9): 7.94 µM (inconclusive)

N=c1c(-c2nc3ccccc3[nH]2)cc(C(=O)c2cccs2)nn1-c1ccc(Cl)cc1
IC50 (Estrogen receptor beta [5]): > 50 µM (not active)
IC50 (Estrogen receptor beta [6]): > 50 µM (not active)

Nn1c(SCC(=O)Nc2cccnc2Cl)nnc1-c1ccccc1
IC50 [23]: > 80 µM (inactive)
IC50 [24]: 13.3 µM (active)
IC50 [25]: > 100 µM (inactive)

CC(C)C[C@H]1CN=C(Nc2ccccc2)N1CCCC1CCCCC1
CC50 [26]: > 20 µM (active)
CC50 [27]: 16.2 µM (active)
IC50 (cells [28]): 40.1 µM (active)
